Results on 25 compounds are retold here after ChEMBL document CHEMBL4665662, “Designed P-glycoprotein inhibitors with triazol-tetrahydroisoquinoline-core increase doxorubicin-induced mortality in multidrug resistant K562/A02 cells” (Bioorg Med Chem, 2019).

pEC50, pIC50: −log10 of the molar value. Active and inactive are the calls of the source. No cut-off for these calls is given here.

Assay [1] relates to K562/A02. Briefly: Cytotoxicity against human K562/A02 cells overexpressing P-gp assessed as cell growth inhibition after 48 hrs by MTT assay. The following applies: K562/A02, 48 h. In kind it is cell-based. (Tetrazolium assays rely on reduction of a dye to a coloured formazan, in cell work by metabolically active cells.)
In assay [2] the test system is K562/A02. Briefly: Reversal of P-gp mediated multidrug resistance in human K562/A02 cells overexpressing P-gp assessed as fold reduction in doxorubicin IC50 at 5 uM after 48 hrs by MTT assay relative to control. The format is cell-based.
Another assay relates to K562. Briefly: Cytotoxicity against human K562 cells assessed as cell growth inhibition after 48 hrs by MTT assay. The format is cell-based. The settings on record: K562, 48 h.
Assay [3] deals with K562/A02. Briefly: Inhibition of P-gp overexpressed in human K562/A02 cells assessed as increase doxorubicin accumulation at 5 uM preincubated for 60 mins followed by doxorubicin addition and measured after 90 mins by fluorescence spectrophotometry analysis. In kind it is cell-based.
Assay [4] has as its system K562/A02. Briefly: Inhibition of P-gp overexpressed in human K562/A02 cells assessed as increase in doxorubicin accumulation preincubated for 60 mins followed by doxorubicin addition and measured after 90 mins by fluorescence spectrophotometry analysis. The format is cell-based. The settings on record: dose microM 0.5-5, time 60.0 min.
The test system of assay [5] is K562/A02. Briefly: Reversal of P-gp mediated multidrug resistance in human K562/A02 cells overexpressing P-gp assessed as fold reduction in doxorubicin IC50 at 5 uM preincubated for 24 hrs followed by compound washout and 6 hrs later incubated with doxorubicin and measured after 48 hrs by MTT assay relative to control. In kind it is cell-based.
Assay [6] relates to K562/A02. Nature of the assay: Inhibition of P-gp overexpressed in human K562/A02 cells assessed as increase in doxorubicin accumulation at 0.1 uM preincubated for 60 mins followed by doxorubicin addition and measured after 90 mins by fluorescence spectrophotometry analysis. The format is cell-based.
The subject of assay [7] is K562/A02. Nature of the assay: Effect on P-gp expression in human K562/A02 cells overexpressing P-gp at 0.5 to 5 uM after 72 hrs by Western blot analysis. The following applies: dose microM 0.5-5, time 72.0 hrs. In kind it is functional, cell-based. In general terms: Immunoblotting shows a protein as a band on a membrane.
The subject of assay [8] is K562/A02. Nature of the assay: Reversal of P-gp mediated multidrug resistance in human K562/A02 cells overexpressing P-gp assessed as potentiation of doxorubicin-induced mortality by measuring reduction in doxorubicin IC50 at 10 nM measured after 48 hrs by MTT assay. The format is cell-based.
Assay [9] deals with K562/A02. Nature of the assay: Reversal of P-gp mediated multidrug resistance in human K562/A02 cells overexpressing P-gp assessed as inhibition of Rh123 efflux by measuring remaining mean fluorescence intensity at 2 uM pretreated with Rh123 for 60 mins followed by incubation with compound for 90 mins by FACSCalibur flow cytometry analysis. The format is cell-based. Background: Flow cytometry measures light scatter and fluorescence of single cells or particles in a stream.

The subject of assay [10] is K562/A02. Briefly: Reversal of P-gp mediated multidrug resistance in human K562/A02 cells overexpressing P-gp assessed as time duration of action for reversal of doxorubicin-induced cytotoxicity at 5 uM preincubated for 24 hrs followed by compound washout and later incubated with doxorubicin and measured after 48 hrs by MTT assay. In kind it is cell-based.
The test system of assay [11] is K562/A02. Briefly: Reversal of P-gp mediated multidrug resistance in human K562/A02 cells overexpressing P-gp assessed as fold reduction in doxorubicin IC50 at 5 uM preincubated for 24 hrs followed by compound washout and later incubated with doxorubicin and measured after 48 hrs by MTT assay relative to control. In kind it is cell-based.
Assay [12] concerns K562/A02. Nature of the assay: Reversal of P-gp mediated multidrug resistance in human K562/A02 cells overexpressing P-gp assessed as fold reduction in doxorubicin IC50 at 5 uM preincubated for 24 hrs followed by compound washout and 24 hrs later incubated with doxorubicin and measured after 48 hrs by MTT assay relative to control. In kind it is cell-based.
In assay [13] the test system is K562/A02. Briefly: Reversal of P-gp mediated multidrug resistance in human K562/A02 cells overexpressing P-gp assessed as fold reduction in doxorubicin IC50 at 5 uM preincubated for 24 hrs followed by compound washout and 12 hrs later incubated with doxorubicin and measured after 48 hrs by MTT assay relative to control. In kind it is cell-based.
A short description of assay [14]: Reversal of P-gp mediated multidrug resistance in human K562/A02 cells overexpressing P-gp assessed as potentiation of doxorubicin-induced mortality by measuring reduction in doxorubicin IC50 measured after 48 hrs by MTT assay. The settings on record: K562/A02, 48 h. In kind it is cell-based.

By pIC50 is commonly meant the negative decadic logarithm of the IC50, by convention in mol/L. As to `COc1cc2c(cc1OC)CN(CCc1ccc(-n3cc(CNc4ccccc4NC(=O)c4cccs4)nn3)cc1)CC2`, the pIC50 in the assay with K562/A02 [1] is 4.22; in the assay on K562 (read-out: IC50), less than 4.00. Further, in the assay with K562/A02 [2], the Ratio IC50 amounted to 21.2.
Consider `COc1cc2c(cc1OC)CN(CCn1cc(CNc3ccccc3NC(=O)c3cccnc3Cl)nn1)CC2`, for which the pIC50 in the assay on K562/A02 [1] was less than 4.00. For the same compound, in the assay with K562/A02 [2], the Ratio IC50 came out at 1.28.
In the case of `COc1cc2c(cc1OC)CN(CCc1ccc(-n3cc(CNc4ccccc4NC(=O)c4ccsc4)nn3)cc1)CC2`, the figures for the negative-log IC50 (pIC50) with K562/A02 [1] and with K562 (read-out: IC50) were 4.18 and less than 4.00, respectively. Further, in the assay with K562/A02 [2], the Ratio IC50 turned out to be 22.8.
The like results for `COc1cc2c(cc1OC)CN(CCc1ccc(-n3cc(CNc4ccccc4NC(=O)c4cnc5ccccc5c4)nn3)cc1)CC2` were, in that order, less than 4.00, less than 4.00 and 3.82.
For `COc1cc2c(cc1OC)CN(CCn1cc(CNc3ccccc3NC(=O)c3ccsc3)nn1)CC2`, the pIC50 with K562/A02 [1] is less than 4.00. In the assay with K562/A02 [2], the Ratio IC50 was 2.27.
As to `COc1cc2c(cc1OC)CN(CCc1ccc(-n3cc(CNc4ccccc4NC(=O)c4ccccn4)nn3)cc1)CC2`, the results for the pIC50 with K562/A02 [1] and with K562 (read-out: IC50) were 4.28 and 4.35, respectively. Further, the Ratio IC50 in the assay on K562/A02 [2] is 11.8.
`COc1ccc(CCN(C)CCCC(C#N)(c2ccc(OC)c(OC)c2)C(C)C)cc1OC` (stereo unspecified): the negative-log IC50 (pIC50) with K562/A02 [1] is 4.23; with K562 it was 4.17. Besides, in the assay on K562/A02 [3], the inhibition result was “Active”. In addition, the inhibition entry with K562/A02 [4] was “Dose-dependent effect”.
As for `COc1cc2c(cc1OC)CN(CCc1ccc(-n3cc(CNc4ccccc4NC(=O)c4ccsc4C)nn3)cc1)CC2`, the negative-log IC50 (pIC50) was 4.23 in the assay with K562/A02 [1] and less than 4.00 in the assay with K562 (read-out: IC50). The Ratio IC50 in the assay with K562/A02 [2] stood at 10.9.
Consider `COc1cccc2c1C(=O)c1c(O)c3c(c(O)c1C2=O)C[C@@](O)(C(=O)CO)C[C@@H]3O[C@H]1C[C@H](N)[C@H](O)[C@H](C)O1` [DOXORUBICIN], for which the pIC50 in the assay with K562/A02 [1] is 4.26.
For `COc1cc2c(cc1OC)CN(CCc1ccc(-n3cc(CNc4ccccc4NC(=O)c4cc5ccccc5[nH]4)nn3)cc1)CC2`, the pIC50 in the assay with K562/A02 [1] and in the assay with K562 (read-out: IC50) was less than 4.00 throughout. Further, the Ratio IC50 in the assay with K562/A02 [2] came out at 6.57.
Take `COc1cc2c(cc1OC)CN(CCn1cc(CNc3ccccc3NC(=O)c3sccc3C)nn1)CC2`: the negative-log IC50 (pIC50) with K562/A02 [1] was less than 4.00. Also, in the assay with K562/A02 [2], the Ratio IC50 came out at 3.09.
Turning to `COc1cc2c(cc1OC)CN(CCc1ccc(-n3cc(CNc4ccccc4NC(=O)c4ccncc4)nn3)cc1)CC2`, the negative-log IC50 (pIC50) in the assay on K562/A02 [1] and with K562 (read-out: IC50) was less than 4.00 in each case. Also, in the assay on K562/A02 [2], the Ratio IC50 came out at 1.09.
Take `COc1cc2c(cc1OC)CN(CCn1cc(CNc3ccccc3NC(=O)c3ccc(Cl)s3)nn1)CC2`: the negative-log IC50 (pIC50) in the assay with K562/A02 [1] was less than 4.00. Further, the Ratio IC50 with K562/A02 [2] came to 3.38.
Take `COc1cc2c(cc1OC)CN(CCc1ccc(-n3cc(CNc4ccccc4NC(=O)c4cccnc4Cl)nn3)cc1)CC2`: the pIC50 with K562/A02 [1] is 4.33; in the assay on K562 (read-out: IC50), 4.37. In addition, the Ratio IC50 in the assay with K562/A02 [2] was 2.79.
The like results for `COc1cc2c(cc1OC)CN(CCc1ccc(-n3cc(CNc4ccccc4NC(=O)c4ccc5ccccc5n4)nn3)cc1)CC2` were, in that order, 4.24, less than 4.00 and 13.3.
As to `COc1cc2c(cc1OC)CN(CCn1cc(CNc3ccccc3NC(=O)c3ccco3)nn1)CC2`, the pIC50 with K562/A02 [1] is less than 4.00. Further, the Ratio IC50 in the assay with K562/A02 [2] was found to be 1.28.
With `COc1cc2c(cc1OC)CN(CCn1cc(CNc3ccccc3NC(=O)c3cc4ccccc4[nH]3)nn1)CC2`, the pIC50 with K562/A02 [1] is less than 4.00. Further, in the assay with K562/A02 [2], the Ratio IC50 turned out to be 4.16.
For the compound `COc1cc2c(cc1OC)CN(CCc1ccc(-n3cc(CNc4ccccc4NC(=O)c4ccco4)nn3)cc1)CC2`, the negative-log IC50 (pIC50) was 4.23 in the assay on K562/A02 [1] and 4.59 with K562 (read-out: IC50). For the same compound, the Ratio IC50 in the assay with K562/A02 [2] came to 11.2.
Regarding `COc1cc2c(cc1OC)CN(CCn1cc(CNc3ccccc3NC(=O)c3ccc(C)s3)nn1)CC2`, the pIC50 in the assay with K562/A02 [1] was less than 4.00. For the same compound, the Ratio IC50 in the assay with K562/A02 [2] came out at 2.86.
For `COc1cc2c(cc1OC)CN(CCc1ccc(-n3cc(CNc4ccccc4NC(=O)c4ccc(C)s4)nn3)cc1)CC2`, the pIC50 with K562/A02 [1] and in the assay on K562 (read-out: IC50) was less than 4.00 each time. For the same compound, the Ratio IC50 in the assay on K562/A02 [2] turned out to be 21.8.
Broadly, the pEC50 is the negative decadic logarithm of the EC50, by convention in mol/L. For `COc1cc2c(cc1OC)CN(CCc1ccc(-n3cc(CNc4ccccc4NC(=O)c4ccc(Cl)s4)nn3)cc1)CC2`, the Ratio IC50 came to 7.08 in the assay with K562/A02 [5]; 42 with K562/A02 [2]; 17.1 in the assay on K562/A02 [11]; 1.27 in the assay with K562/A02 [12]; 3.29 in the assay with K562/A02 [13]. Moreover, the inhibition entry in the assay with K562/A02 [6], in the assay on K562/A02 [3] and in the assay on K562/A02 [8] was “Active” in each case. Also, the pIC50 in the assay with K562/A02 [1] was 4.20; in the assay with K562 (read-out: IC50) it was less than 4.00. Moreover, the result in the assay on K562/A02 [7] was inactive. For the same compound, in the assay with K562/A02 [9], the Activity was greater than 50%. In the assay on K562/A02 [10], the TIME is greater than 24 h. Further, the inhibition result in the assay with K562/A02 [4] is “Dose-dependent effect”. In [14], the pEC50 is 7.33.
Take `COc1cc2c(cc1OC)CN(CCn1cc(CNc3ccccc3NC(=O)c3ccncc3)nn1)CC2`: the pIC50 with K562/A02 [1] was less than 4.00. In the assay on K562/A02 [2], the Ratio IC50 came to 3.74.
`COc1cc2c(cc1OC)CN(CCn1cc(CNc3ccccc3NC(=O)c3cccs3)nn1)CC2`: the pIC50 in the assay with K562/A02 [1] is less than 4.00. Moreover, in the assay with K562/A02 [2], the Ratio IC50 was 2.03.
For the compound `COc1cc2c(cc1OC)CN(CCc1ccc(NC(=O)c3cc(OC)c(OC)cc3NC(=O)c3cnc4ccccc4c3)cc1)CC2`, the Ratio IC50 in the assay with K562/A02 [5] is 10.2; in the assay with K562/A02 [2], 42.3; with K562/A02 [11], 19.2; in the assay on K562/A02 [12], 2.4; in the assay on K562/A02 [13], 4.12. For the same compound, the negative-log IC50 (pIC50) with K562/A02 [1] is 4.52; in the assay on K562 (read-out: IC50), 4.73. The inhibition entry with K562/A02 [4] is “Dose-dependent effect”.
With `COc1cc2c(cc1OC)CN(CCn1cc(CNc3ccccc3NC(=O)c3ccccn3)nn1)CC2`, in the assay with K562/A02 [1], the negative-log IC50 (pIC50) is less than 4.00. Moreover, the Ratio IC50 in the assay on K562/A02 [2] stood at 3.88.
